Experimental data as given in ChEMBL document CHEMBL5247596, “SAR studies toward discovery of emvododstat (PTC299), a potent dihydroorotate dehydrogenase (DHODH) inhibitor” (Eur J Med Chem, 2022).

What was measured:
MOLM-13 = experiment: Cytotoxicity against human MOLM-13 cells assessed as reduction of cell viability incubated for 3 days by CellTiter-Glo assay; type: functional, cell-based; details: MOLM-13, 72 h; for CC50: time 3 day
[1] = AUC([…]) in mouse at 10 mg/kg, po administered via gavage measured upto 24 hrs by LC/MS-MS analysis; type: ADME, organism-based; design: dose 10 mg/kg, time < 24 hrs, route po; details: in vivo
HT-1080 [2] = experiment: Antitumor activity against human HT-1080 cells xenografted in mouse assessed as tumor growth inhibition at 10 mg/kg, po bid measured for 14 days relative to control; type: functional; details: HT-1080, 336 h, time 14 day, read-out: TGI
[3] = Metabolic stability in mouse liver microsomes assessed as intrinsic clearance at 1 uM incubated upto 60 mins in presence of NADP by LC-MS analysis; type: ADME, Microsome; details: read-out: CLH
HT-1080 [4] = experiment: Antitumor activity against human HT-1080 cells xenografted in mouse assessed as tumor growth inhibition at 50 mg/kg, po bid measured for 14 days relative to control; type: functional; details: HT-1080, 336 h, time 14 day, read-out: TGI
[5] = target: Dihydroorotate dehydrogenase (quinone), mitochondrial (Homo sapiens, UniProt Q02127); experiment: Inhibition of DHODH in human HeLa cells assessed as reduction in hypoxia-induced VEGF expression incubated for 48 hrs by ELISA assay; type: cell-based
Chain of Dihydroorotate dehydrogenase (quinone), mitochondrial (Q02127 whole entry): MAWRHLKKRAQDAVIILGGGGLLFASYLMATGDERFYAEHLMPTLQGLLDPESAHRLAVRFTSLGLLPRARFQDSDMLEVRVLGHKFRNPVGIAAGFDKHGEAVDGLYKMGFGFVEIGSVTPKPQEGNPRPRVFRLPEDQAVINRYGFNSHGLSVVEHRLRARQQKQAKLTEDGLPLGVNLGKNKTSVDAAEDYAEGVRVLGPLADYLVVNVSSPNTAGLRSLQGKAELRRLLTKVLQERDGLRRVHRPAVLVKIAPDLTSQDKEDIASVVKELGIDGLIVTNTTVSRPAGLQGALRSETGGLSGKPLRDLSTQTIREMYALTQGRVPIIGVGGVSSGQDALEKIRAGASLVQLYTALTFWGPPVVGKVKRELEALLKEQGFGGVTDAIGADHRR

HT-1080 [6] = experiment: Antitumor activity against human HT-1080 cells xenografted in mouse assessed as tumor growth inhibition at 10 mg/kg, po bid measured for 21 days relative to control; type: functional; details: HT-1080, 504 h, time 21 day, read-out: TGI
HT-1080 [7] = experiment: Antitumor activity against human HT-1080 cells xenografted in mouse assessed as tumor growth inhibition at 2 mg/kg, po bid measured for 21 days relative to control; type: functional; details: HT-1080, 504 h, time 21 day, read-out: TGI
[8] = target: Voltage-gated inwardly rectifying potassium channel KCNH2 (Homo sapiens, UniProt Q12809); experiment: Inhibition of hERG (unknown origin); type: toxicity
Chain of Voltage-gated inwardly rectifying potassium channel KCNH2 (Q12809 whole entry): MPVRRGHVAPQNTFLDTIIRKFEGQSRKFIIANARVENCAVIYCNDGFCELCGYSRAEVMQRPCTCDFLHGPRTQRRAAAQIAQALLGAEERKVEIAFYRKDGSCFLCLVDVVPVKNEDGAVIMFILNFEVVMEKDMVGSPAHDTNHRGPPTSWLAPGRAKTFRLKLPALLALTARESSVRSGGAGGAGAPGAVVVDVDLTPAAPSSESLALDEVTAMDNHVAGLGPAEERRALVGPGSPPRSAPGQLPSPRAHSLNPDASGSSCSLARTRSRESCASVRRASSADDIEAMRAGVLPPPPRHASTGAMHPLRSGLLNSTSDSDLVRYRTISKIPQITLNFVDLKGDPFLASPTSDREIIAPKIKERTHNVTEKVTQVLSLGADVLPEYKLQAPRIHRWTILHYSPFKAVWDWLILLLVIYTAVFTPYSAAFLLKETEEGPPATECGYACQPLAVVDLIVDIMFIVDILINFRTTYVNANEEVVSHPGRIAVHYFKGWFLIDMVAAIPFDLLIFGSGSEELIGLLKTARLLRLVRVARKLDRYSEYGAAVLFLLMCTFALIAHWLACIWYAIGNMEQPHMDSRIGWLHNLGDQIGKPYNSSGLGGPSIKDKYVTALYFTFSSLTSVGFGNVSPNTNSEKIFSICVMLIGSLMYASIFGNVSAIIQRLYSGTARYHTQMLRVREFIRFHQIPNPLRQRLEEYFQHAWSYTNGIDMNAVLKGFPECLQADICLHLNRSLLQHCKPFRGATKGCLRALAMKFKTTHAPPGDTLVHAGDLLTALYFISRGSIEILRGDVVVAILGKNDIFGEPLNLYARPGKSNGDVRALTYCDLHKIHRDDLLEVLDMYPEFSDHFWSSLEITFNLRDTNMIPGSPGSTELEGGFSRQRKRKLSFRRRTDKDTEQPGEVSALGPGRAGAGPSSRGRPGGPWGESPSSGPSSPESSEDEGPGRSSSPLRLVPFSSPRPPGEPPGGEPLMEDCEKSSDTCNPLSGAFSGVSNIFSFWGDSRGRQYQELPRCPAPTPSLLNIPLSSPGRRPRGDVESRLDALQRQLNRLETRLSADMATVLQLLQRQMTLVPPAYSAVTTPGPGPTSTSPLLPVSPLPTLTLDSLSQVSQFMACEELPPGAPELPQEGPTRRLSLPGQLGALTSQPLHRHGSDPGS

[9] = Toxicity in po dosed rat bone marrow by micronucleus assay; type: organism-based; details: in vivo
[10] = Oral bioavailability in Beagle dog at 3 mg/kg by LC-MS/MS analysis; type: ADME, organism-based, Canis lupus familiaris; details: in vivo
[11] = Genotoxicity in Salmonella typhimurium by Ames test; type: toxicity; details: salmonella enterica subsp. enterica serovar typhimurium
[12] = Toxicity in CHO cells assessed as chromosomal aberration; type: cell-based, Cricetulus griseus; details: chinese hamster
[13] = Oral bioavailability in Sprague-Dawley rat at 3 mg/kg by LC-MS/MS analysis; type: ADME, organism-based; details: in vivo

Structure (SMILES) | CC50 (MOLM-13) [µM] | further results
COc1ccc(C2NCCc3c2[nH]c2ccccc32)cc1 (stereo not given) | > 30 | –
COc1ccc(C2NCCc3c2[nH]c2ccc(Cl)cc32)cc1 (stereo not given) | 1.2 | –
CCOC(=O)N1CCc2c([nH]c3ccc(Cl)cc23)C1c1ccc(OC)cc1 (stereo not given) | 0.025 | AUC(0-t) at 24 h [1]: 0.58 µg·h/mL; inhibition in vivo at 10 mg/kg (HT-1080 [2]): 2%; CLint scaled at 1 µM [3]: 11.4 L/h/kg; inhibition in vivo at 50 mg/kg (HT-1080 [4]): 52%
CCOC(=O)N1CCc2c([nH]c3cc(F)ccc23)C1c1ccc(OC)cc1 (stereo not given) | > 1 | –
COc1ccc(C2c3[nH]c4ccc(Cl)cc4c3CCN2C)cc1 (stereo not given) | 0.337 | –
COc1ccc(C2c3[nH]c4ccc(Cl)cc4c3CCN2C(=O)OC2CCCCC2)cc1 (stereo not given) | 0.041 | –
COc1ccc(C2c3[nH]c4ccc(Cl)cc4c3CCN2C(=O)OCCF)cc1 (stereo not given) | 0.037 | CLint scaled at 1 µM [3]: 13.6 L/h/kg
COc1ccc(C2c3[nH]c4ccc(Cl)cc4c3CCN2C(=O)Oc2ccccc2Cl)cc1 (stereo not given) | 0.126 | –
COC(=O)N1CCc2c([nH]c3ccc(Cl)cc23)C1c1ccc(OC)cc1 (stereo not given) | 0.04 | CLint scaled at 1 µM [3]: 10.4 L/h/kg
COc1ccc(C2c3[nH]c4cc(Cl)ccc4c3CCN2C(=O)Oc2ccc(Cl)cc2)cc1 (stereo not given) | 0.306 | –
COc1ccc(C2c3[nH]c4ccc(C)cc4c3CCN2C(=O)Oc2ccc(Cl)cc2)cc1 (stereo not given) | 0.062 | –
COc1ccc(C2c3[nH]c4ccc(Cl)cc4c3CCN2C(=O)Oc2ccccc2C)cc1 (stereo not given) | 0.225 | –
CCOC(=O)N1CCc2c([nH]c3ccc(Cl)cc23)C1c1cccc(OC)c1 (stereo not given) | 0.048 | –
COc1ccc(C2c3[nH]c4ccc(Cl)cc4c3CCN2C(=O)OC(C)C)cc1 (stereo not given) | 0.037 | –
CCOC(=O)N1CCc2c([nH]c3ccc(Cl)cc23)C1c1ccccc1OC (stereo not given) | 0.192 | –
COc1ccc(C2c3[nH]c4ccc(Cl)cc4c3CCN2C(=O)OC(C)(C)C)cc1 (stereo not given) | 0.039 | –
CCOC(=O)N1CCc2c([nH]c3cccc(F)c23)C1c1ccc(OC)cc1 (stereo not given) | > 1 | –
COc1ccc(C2c3[nH]c4ccc(Cl)cc4c3CCN2C(C)=O)cc1 (stereo not given) | 0.274 | –
COc1ccc(C2c3[nH]c4ccc(Cl)cc4c3CCN2C=O)cc1 (stereo not given) | 0.325 | –
CCOC(=O)N1CCc2c([nH]c3ccc(Cl)cc23)C1c1ccccc1 (stereo not given) | 0.052 | CLint scaled at 1 µM [3]: 5.52 L/h/kg
COc1ccc([C@H]2c3[nH]c4ccc(Br)cc4c3C[C@@H]3C(=O)N(C4CCCCC4)C(=S)N23)cc1 | – | EC50 [5]: 0.003 µM
COc1ccc(C2c3[nH]c4ccc(Cl)cc4c3CCN2Cc2ccccc2)cc1 (stereo not given) | 0.265 | –
CCOC(=O)N1CCc2c([nH]c3ccc(Cl)cc23)C1C1CCCCC1 (stereo not given) | 0.119 | –

Structure (SMILES) | CC50 (MOLM-13) [µM] | further results
COc1ccc([C@@H]2c3[nH]c4ccc(Cl)cc4c3CCN2C(=O)Oc2ccc(Cl)cc2)cc1 | > 1 | –
CCOC(=O)N1CCc2c([nH]c3ccc(Cl)cc23)C1c1cccc(F)c1 (stereo not given) | 0.053 | CLint scaled at 1 µM [3]: 9.06 L/h/kg
COc1ccc([C@H]2c3[nH]c4ccc(Cl)cc4c3C[C@@H]3C(=O)N(C4CCCCC4)C(=S)N23)cc1 | – | EC50 [5]: 0.001 µM
CCOC(=O)N1CCc2c([nH]c3ccc(Cl)cc23)C1c1ccc(Cl)cc1 (stereo not given) | 0.019 | AUC(0-t) at 24 h [1]: 0.55 µg·h/mL; CLint scaled at 1 µM [3]: 13.3 L/h/kg
COc1ccc(C2c3[nH]c4ccc(Cl)cc4c3CCN2S(=O)(=O)c2ccccc2)cc1 (stereo not given) | > 1 | –
CCOC(=O)N1CCc2c([nH]c3ccc(C#N)cc23)C1c1ccc(OC)cc1 (stereo not given) | 0.284 | –
CCOC(=O)N1CCc2c([nH]c3ccc(Cl)cc23)C1C (stereo not given) | > 1 | –
COc1ccc(C2c3[nH]c4ccc(Cl)cc4c3CCN2C(=O)Oc2cccc(C)c2)cc1 (stereo not given) | 0.077 | –
COc1ccc(C2c3[nH]c4ccc(Cl)cc4c3CCN2C(=O)OC2CCC2)cc1 (stereo not given) | 0.028 | –
Brc1ccc2[nH]c3c(c2c1)CCCC3n1cccc1 (stereo not given) | – | EC50 [5]: 0.013 µM
COc1ccc(C2c3[nH]c4ccc(Cl)cc4c3CCN2C(=O)Oc2cccnc2)cc1 (stereo not given) | 0.117 | –
COc1ccc(C2c3[nH]c4ccc(Cl)cc4c3CCN2C(=O)Oc2ccc(C)cc2)cc1 (stereo not given) | 0.031 | AUC(0-t) at 24 h [1]: 2.2 µg·h/mL; CLint scaled at 1 µM [3]: < 0.3 L/h/kg
CCOC(=O)N1CCc2c([nH]c3ccc(OC)cc23)C1c1ccc(OC)cc1 (stereo not given) | 0.215 | –
CCOC(=O)N1CCc2c([nH]c3ccccc23)C1c1ccc(OC)cc1 (stereo not given) | > 1 | –
COc1ccc(C2c3[nH]c4ccc(Cl)cc4c3CCN2C(=O)Oc2cccc(Cl)c2)cc1 (stereo not given) | 0.013 | –
COc1ccc(C2c3[nH]c4cccc(Cl)c4c3CCN2C(=O)Oc2ccc(Cl)cc2)cc1 (stereo not given) | 0.389 | –
CCOC(=O)N1CCc2c([nH]c3ccc(Cl)cc23)C1c1ccccc1Cl (stereo not given) | 0.384 | –
CCOC(=O)N1CCc2c([nH]c3ccc(F)cc23)C1c1ccc(OC)cc1 (stereo not given) | 0.433 | –
COc1ccc(C2NCCc3c2[nH]c2ccc(Br)cc32)cc1 (stereo not given) | 0.92 | –
CCOC(=O)N1CCc2c([nH]c3ccc(Cl)cc23)C1Cc1ccccc1 (stereo not given) | > 1 | –
CCCOC(=O)N1CCc2c([nH]c3ccc(Cl)cc23)C1c1ccc(OC)cc1 (stereo not given) | 0.023 | –
COc1ccc(C2c3[nH]c4ccc(Cl)cc4c3CCN2C(=O)Oc2cccc(F)c2)cc1 (stereo not given) | 0.027 | –
CCOC(=O)N1CCc2c([nH]c3ccc(Cl)cc23)C1c1ccccc1F (stereo not given) | 0.036 | –

Structure (SMILES) | CC50 (MOLM-13) [µM] | further results
COc1ccc(OC(=O)N2CCc3c([nH]c4ccc(Cl)cc34)C2c2ccc(OC)cc2)cc1 (stereo not given) | 0.073 | –
COc1ccc(C2c3c(c4cc(Cl)ccc4n3C)CCN2C(=O)Oc2ccc(Cl)cc2)cc1 (stereo not given) | – | EC50 (MOLM-13): > 1 µM
COc1ccc(C2c3[nH]c4ccc(Cl)cc4c3CCN2C(=O)Oc2ccc(Cl)cc2)cc1 (stereo not given) | 0.012 | AUC(0-t) at 24 h [1]: 8.6 µg·h/mL; inhibition in vivo at 10 mg/kg (HT-1080 [6]): 82%; CLint scaled at 1 µM [3]: < 0.3 L/h/kg; inhibition in vivo at 2 mg/kg (HT-1080 [7]): 63%
COCCOC(=O)N1CCc2c([nH]c3ccc(Cl)cc23)C1c1ccc(OC)cc1 (stereo not given) | 0.081 | CLint scaled at 1 µM [3]: 21.9 L/h/kg
CCNC(=S)N1CCc2c([nH]c3ccc(Cl)cc23)C1c1ccc(OC)cc1 (stereo not given) | 0.477 | –
CCOC(=O)N1CCc2c([nH]c3ccc(Br)cc23)C1c1ccc(OC)cc1 (stereo not given) | 0.011 | –
COc1ccc(C2c3[nH]c4ccc(Cl)cc4c3CCN2C(=O)OC2CCCC2)cc1 (stereo not given) | 0.036 | –
CCOC(=O)N1CCc2c([nH]c3c(F)cccc23)C1c1ccc(OC)cc1 (stereo not given) | > 1 | –
CCOC(=O)N1CCc2c([nH]c3ccc(Cl)cc23)C1c1cccc(Cl)c1 (stereo not given) | 0.034 | CLint scaled at 1 µM [3]: 8.58 L/h/kg
CCOC(=O)N1CCc2c([nH]c3c(C)cccc23)C1c1ccc(OC)cc1 (stereo not given) | > 1 | –
CCN(CC)C(=O)N1CCc2c([nH]c3ccc(Cl)cc23)C1c1ccc(OC)cc1 (stereo not given) | > 1 | –
COc1ccc(C2c3[nH]c4ccc(Cl)cc4c3CCN2C(=O)OC2CC2)cc1 (stereo not given) | 0.037 | –
COc1ccc(C2c3[nH]c4ccc(Cl)cc4c3CCN2c2ccccc2)cc1 (stereo not given) | 0.133 | –
CCNC(=O)N1CCc2c([nH]c3ccc(Cl)cc23)C1c1ccc(OC)cc1 (stereo not given) | 0.929 | –
COc1ccc(C2c3[nH]c4ccc(Cl)cc4c3CCN2C(=O)Oc2ccc(F)cc2)cc1 (stereo not given) | 0.026 | –
CCN1CCc2c([nH]c3ccc(Cl)cc23)C1c1ccc(OC)cc1 (stereo not given) | 0.278 | –
COc1ccc([C@H]2c3[nH]c4ccccc4c3C[C@@H]3C(=O)N(C4CCCCC4)C(=S)N23)cc1 | – | EC50 [5]: 0.68 µM
CCOC(=O)N1CCc2c([nH]c3ccc(Cl)cc23)C1c1ccc(F)cc1 (stereo not given) | 0.036 | AUC(0-t) at 24 h [1]: 0.2 µg·h/mL
COc1ccc(C2c3[nH]c4ccc(Cl)cc4c3CCN2C(=O)Oc2cncnc2)cc1 (stereo not given) | 0.074 | –
COc1ccc(C2c3[nH]c4ccc(Cl)cc4c3CCN2C(=O)Oc2ccccc2F)cc1 (stereo not given) | 0.059 | –
O=C(Oc1ccc(Cl)cc1)N1CCn2c(cc3ccc(Cl)cc32)C1c1ccccc1 (stereo not given) | – | EC50 (MOLM-13): > 1 µM
COc1ccc(C2c3[nH]c4ccc(Cl)cc4c3CCN2C(=O)Oc2ccccc2)cc1 (stereo not given) | 0.034 | CLint scaled at 1 µM [3]: 1.32 L/h/kg
COc1ccc([C@H]2c3[nH]c4ccc(Cl)cc4c3CCN2C(=O)Oc2ccc(Cl)cc2)cc1 [EMVODODSTAT] | 0.006 | inhibition (INH) [8]: Not Active; Activity [9]: Non-Toxic; bioavailability [10]: 8%; Activity [11]: Non-Toxic; Activity [12]: Non-Toxic; bioavailability [13]: 119%
